# Target: T1, STING (stimulator of interferon genes) (Homo sapiens, UniProt Q86WV6)
# T1 construct: gene STING1; endogenous STING in THP1-ISG-luc cells
# Assay: THP1-ISG-luc ISRE reporter assay with PFO permeabilisation; IFN-beta response lost in STING-KO THP1 cells
# Assay type: cell-based
# T1 sequence (Q86WV6 whole entry, looked up): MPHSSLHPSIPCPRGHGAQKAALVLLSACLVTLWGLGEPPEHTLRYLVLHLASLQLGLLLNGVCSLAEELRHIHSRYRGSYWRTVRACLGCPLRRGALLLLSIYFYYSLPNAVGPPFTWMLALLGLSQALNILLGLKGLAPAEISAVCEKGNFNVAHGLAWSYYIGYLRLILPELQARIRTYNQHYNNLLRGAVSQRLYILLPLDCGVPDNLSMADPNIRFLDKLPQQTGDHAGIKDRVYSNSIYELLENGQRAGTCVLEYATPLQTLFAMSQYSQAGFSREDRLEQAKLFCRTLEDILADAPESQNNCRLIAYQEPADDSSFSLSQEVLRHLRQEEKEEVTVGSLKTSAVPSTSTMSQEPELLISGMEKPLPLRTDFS
substance,measurement,value
IMSA101,EC50,0.02 to 0.03 µM

# Reference: PMC11087554, “The STING agonist IMSA101 enhances chimeric antigen receptor T cell function by inducing IL-18 secretion” (Nature Communications, 2024)
